In PubChem BioAssay (NCI):
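Where inhibition never reached the appropriate level, the endpoint shown equals the highest concentration tested. Otherwise, values were interpolated linearly from a five-concentration, 48-hour dose response in 96-well plates. Here, GI50 denotes the concentration required for 50% inhibition of growth. At the TGI there is no net growth.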

Experiments:
Assay in all cases: growth of human tumour cells (NCI), 48 h
HCT-15 colon = system: HCT-15 colon
HCT-116 colon = system: HCT-116 colon
MOLT-4 leukemia = system: MOLT-4 leukemia
OVCAR-3 ovarian = system: OVCAR-3 ovarian
NCI-H23 lung = system: NCI-H23 lung
U251 CNS = system: U251 CNS
PC-3 prostate = system: PC-3 prostate
SF-539 CNS = system: SF-539 CNS
OVCAR-5 ovarian = system: OVCAR-5 ovarian
SF-268 CNS = system: SF-268 CNS
OVCAR-4 ovarian = system: OVCAR-4 ovarian
A549 NSCLC = system: A549 NSCLC
ACHN renal = system: ACHN renal
NCI-H522 lung = system: NCI-H522 lung
UACC-62 melanoma = system: UACC-62 melanoma
CAKI-1 renal = system: CAKI-1 renal
SK-OV-3 ovarian = system: SK-OV-3 ovarian
MDA-MB-468 breast = system: MDA-MB-468 breast
MALME-3M melanoma = system: MALME-3M melanoma
TK-10 renal = system: TK-10 renal
UO-31 renal = system: UO-31 renal
MCF7 breast = system: MCF7 breast
MDA-MB-231 breast = system: MDA-MB-231 breast
DU-145 prostate = system: DU-145 prostate
HS 578T breast = system: HS 578T breast
SNB-75 CNS = system: SNB-75 CNS
LOX IMVI melanoma = system: LOX IMVI melanoma
CCRF-CEM leukemia = system: CCRF-CEM leukemia
RPMI-8226 leukemia = system: RPMI-8226 leukemia
SK-MEL-5 melanoma = system: SK-MEL-5 melanoma
A498 renal = system: A498 renal
COLO 205 colon = system: COLO 205 colon
EKVX NSCLC = system: EKVX NSCLC
SR leukemia = system: SR leukemia
HCC-2998 colon = system: HCC-2998 colon
K-562 leukemia = system: K-562 leukemia
SNB-19 CNS = system: SNB-19 CNS
SF-295 CNS = system: SF-295 CNS
M14 melanoma = system: M14 melanoma
UACC-257 melanoma = system: UACC-257 melanoma
SW-620 colon = system: SW-620 colon
SK-MEL-28 melanoma = system: SK-MEL-28 melanoma
SK-MEL-2 melanoma = system: SK-MEL-2 melanoma
HL-60(TB) leukemia = system: HL-60(TB) leukemia
HOP-92 NSCLC = system: HOP-92 NSCLC
T-47D breast = system: T-47D breast
BT-549 breast = system: BT-549 breast
HT29 colon = system: HT29 colon
MDA-MB-435 = system: MDA-MB-435
KM12 colon = system: KM12 colon
IGROV1 ovarian = system: IGROV1 ovarian
NCI-H226 lung = system: NCI-H226 lung
HOP-62 NSCLC = system: HOP-62 NSCLC
NCI-H460 lung = system: NCI-H460 lung
NCI/ADR-RES ovarian = system: NCI/ADR-RES ovarian
OVCAR-8 ovarian = system: OVCAR-8 ovarian
786-0 renal = system: 786-0 renal
SN12C renal = system: SN12C renal

COCCOCCOCCOc1ccc(-n2cc(CCCN(CCNc3ccnc4cc(Cl)ccc34)C(=O)CCC(=O)O[C@@H]3O[C@@H]4OC5(C)CC[C@H]6[C@H](C)CC[C@@H]([C@H]3C)[C@@]46OO5)nn2)cc1
GI50 (HCT-15 colon): 0.388 µM
TGI (HCT-15 colon): > 10.3 µM
GI50 (HCT-116 colon): 0.434 µM
TGI (HCT-116 colon): > 10.3 µM
GI50 (MOLT-4 leukemia): 0.408 µM
TGI (MOLT-4 leukemia): > 10.3 µM
GI50 (OVCAR-3 ovarian): 0.883 µM
TGI (OVCAR-3 ovarian): > 10.3 µM
GI50 (NCI-H23 lung): 1.77 µM
TGI (NCI-H23 lung): > 10.3 µM
GI50 (U251 CNS): 4.31 µM
TGI (U251 CNS): > 10.3 µM
GI50 (PC-3 prostate): 0.301 µM
TGI (PC-3 prostate): > 10.3 µM
GI50 (SF-539 CNS): 4.97 µM
TGI (SF-539 CNS): > 10.3 µM
GI50 (OVCAR-5 ovarian): 1.7 µM
TGI (OVCAR-5 ovarian): > 10.3 µM
GI50 (SF-268 CNS): 7.69 µM
TGI (SF-268 CNS): > 10.3 µM
GI50 (OVCAR-4 ovarian): 2 µM
TGI (OVCAR-4 ovarian): > 10.3 µM
GI50 (A549 NSCLC): 6.09 µM
TGI (A549 NSCLC): > 10.3 µM
GI50 (ACHN renal): 3.97 µM
TGI (ACHN renal): > 10.3 µM
GI50 (NCI-H522 lung): 0.754 µM
TGI (NCI-H522 lung): > 10.3 µM
GI50 (UACC-62 melanoma): 1.18 µM
TGI (UACC-62 melanoma): > 10.3 µM
GI50 (CAKI-1 renal): > 10.3 µM
TGI (CAKI-1 renal): > 10.3 µM
GI50 (SK-OV-3 ovarian): > 10.3 µM
TGI (SK-OV-3 ovarian): > 10.3 µM
GI50 (MDA-MB-468 breast): 1.01 µM
TGI (MDA-MB-468 breast): > 10.3 µM
GI50 (MALME-3M melanoma): 1.73 µM
TGI (MALME-3M melanoma): 4.2 µM
GI50 (TK-10 renal): > 10.3 µM
TGI (TK-10 renal): > 10.3 µM
GI50 (UO-31 renal): 1.37 µM
TGI (UO-31 renal): > 10.3 µM
GI50 (MCF7 breast): 1.04 µM
TGI (MCF7 breast): > 10.3 µM
GI50 (MDA-MB-231 breast): > 10.3 µM
TGI (MDA-MB-231 breast): > 10.3 µM
GI50 (DU-145 prostate): > 10.3 µM
TGI (DU-145 prostate): > 10.3 µM
GI50 (HS 578T breast): 2.54 µM
TGI (HS 578T breast): > 10.3 µM
GI50 (SNB-75 CNS): > 10.3 µM
TGI (SNB-75 CNS): > 10.3 µM
GI50 (LOX IMVI melanoma): 0.731 µM
TGI (LOX IMVI melanoma): > 10.3 µM
GI50 (CCRF-CEM leukemia): 1.07 µM
TGI (CCRF-CEM leukemia): > 10.3 µM
GI50 (RPMI-8226 leukemia): 0.386 µM
TGI (RPMI-8226 leukemia): > 10.3 µM
GI50 (SK-MEL-5 melanoma): 1.18 µM
TGI (SK-MEL-5 melanoma): 8.81 µM
GI50 (A498 renal): > 10.3 µM
TGI (A498 renal): > 10.3 µM
GI50 (COLO 205 colon): 1.12 µM
TGI (COLO 205 colon): > 10.3 µM
GI50 (EKVX NSCLC): 1.67 µM
TGI (EKVX NSCLC): > 10.3 µM
GI50 (SR leukemia): 0.375 µM
TGI (SR leukemia): 3.34 µM
GI50 (HCC-2998 colon): 7.16 µM
TGI (HCC-2998 colon): > 10.3 µM
GI50 (K-562 leukemia): 0.434 µM
TGI (K-562 leukemia): > 10.3 µM
GI50 (SNB-19 CNS): > 10.3 µM
TGI (SNB-19 CNS): > 10.3 µM
GI50 (SF-295 CNS): 3.63 µM
TGI (SF-295 CNS): > 10.3 µM
GI50 (M14 melanoma): 3.19 µM
TGI (M14 melanoma): > 10.3 µM
GI50 (UACC-257 melanoma): 1.86 µM
TGI (UACC-257 melanoma): > 10.3 µM
GI50 (SW-620 colon): 0.654 µM
TGI (SW-620 colon): > 10.3 µM
GI50 (SK-MEL-28 melanoma): 4.01 µM
TGI (SK-MEL-28 melanoma): > 10.3 µM
GI50 (SK-MEL-2 melanoma): 5.76 µM
TGI (SK-MEL-2 melanoma): > 10.3 µM
GI50 (HL-60(TB) leukemia): 0.353 µM
TGI (HL-60(TB) leukemia): 2.37 µM
GI50 (HOP-92 NSCLC): 1.09 µM
TGI (HOP-92 NSCLC): 8.11 µM
GI50 (T-47D breast): 0.42 µM
TGI (T-47D breast): > 10.3 µM
GI50 (BT-549 breast): 0.771 µM
TGI (BT-549 breast): 6.85 µM
GI50 (HT29 colon): 1.23 µM
TGI (HT29 colon): > 10.3 µM
GI50 (MDA-MB-435): 1.25 µM
TGI (MDA-MB-435): > 10.3 µM
GI50 (KM12 colon): 0.792 µM
TGI (KM12 colon): > 10.3 µM
GI50 (IGROV1 ovarian): 4.54 µM
TGI (IGROV1 ovarian): > 10.3 µM
GI50 (NCI-H226 lung): 3.18 µM
TGI (NCI-H226 lung): > 10.3 µM
GI50 (HOP-62 NSCLC): > 10.3 µM
TGI (HOP-62 NSCLC): > 10.3 µM
GI50 (NCI-H460 lung): 10.1 µM
TGI (NCI-H460 lung): > 10.3 µM
GI50 (NCI/ADR-RES ovarian): 2.45 µM
TGI (NCI/ADR-RES ovarian): > 10.3 µM
GI50 (OVCAR-8 ovarian): 1.83 µM
TGI (OVCAR-8 ovarian): > 10.3 µM
GI50 (786-0 renal): 5.54 µM
TGI (786-0 renal): > 10.3 µM
GI50 (SN12C renal): 4.77 µM
TGI (SN12C renal): > 10.3 µM
